In publication PMC3639963, “A New Class of Small Molecule Inhibitor of BMP Signaling” (PLoS ONE, 2013):

Legend:
Assay in all cases: Nanosyn kinase profiling
Format in all cases: biochemical
Conditions in all cases: read-out: Percentage inhibition; for inhibition at 0.1 µM: 0.1 µM inhibitor; for inhibition at 1 µM: 1 µM inhibitor
AMPKα1 = molecular target: T1, AMPKα1 (Homo sapiens, UniProt Q13131)
T1 construct: purchased Nanosyn (enzymatic panel); SGC in-house recombinant human kinases (DSF panel); Invitrogen (ALK1-6)
How it was run: (§1)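 Percent inhibition of each kinase was measured with the inhibitor at 0.1 µM and at 1 µM, as part of a 200-kinase human selectivity panel.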

AURKC = molecular target: T2, AURKC (Homo sapiens, UniProt Q9UQB9)
T2 construct: purchased Nanosyn (enzymatic panel); SGC in-house recombinant human kinases (DSF panel); Invitrogen (ALK1-6)
T2 sequence (Q9UQB9 1-309): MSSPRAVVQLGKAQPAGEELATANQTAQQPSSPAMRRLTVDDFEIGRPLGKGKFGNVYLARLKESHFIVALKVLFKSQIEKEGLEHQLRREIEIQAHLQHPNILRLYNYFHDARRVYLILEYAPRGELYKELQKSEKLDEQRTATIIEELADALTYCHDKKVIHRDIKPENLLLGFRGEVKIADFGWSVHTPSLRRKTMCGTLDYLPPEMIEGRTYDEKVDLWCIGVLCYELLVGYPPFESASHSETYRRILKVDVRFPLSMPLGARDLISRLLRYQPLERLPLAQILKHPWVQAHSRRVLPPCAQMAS
How it was run: as §1

PRKD3 = molecular target: T3, PRKD3 (Homo sapiens, UniProt O94806)
T3 construct: purchased Nanosyn (enzymatic panel); SGC in-house recombinant human kinases (DSF panel); Invitrogen (ALK1-6)
T3 sequence (O94806 1-890): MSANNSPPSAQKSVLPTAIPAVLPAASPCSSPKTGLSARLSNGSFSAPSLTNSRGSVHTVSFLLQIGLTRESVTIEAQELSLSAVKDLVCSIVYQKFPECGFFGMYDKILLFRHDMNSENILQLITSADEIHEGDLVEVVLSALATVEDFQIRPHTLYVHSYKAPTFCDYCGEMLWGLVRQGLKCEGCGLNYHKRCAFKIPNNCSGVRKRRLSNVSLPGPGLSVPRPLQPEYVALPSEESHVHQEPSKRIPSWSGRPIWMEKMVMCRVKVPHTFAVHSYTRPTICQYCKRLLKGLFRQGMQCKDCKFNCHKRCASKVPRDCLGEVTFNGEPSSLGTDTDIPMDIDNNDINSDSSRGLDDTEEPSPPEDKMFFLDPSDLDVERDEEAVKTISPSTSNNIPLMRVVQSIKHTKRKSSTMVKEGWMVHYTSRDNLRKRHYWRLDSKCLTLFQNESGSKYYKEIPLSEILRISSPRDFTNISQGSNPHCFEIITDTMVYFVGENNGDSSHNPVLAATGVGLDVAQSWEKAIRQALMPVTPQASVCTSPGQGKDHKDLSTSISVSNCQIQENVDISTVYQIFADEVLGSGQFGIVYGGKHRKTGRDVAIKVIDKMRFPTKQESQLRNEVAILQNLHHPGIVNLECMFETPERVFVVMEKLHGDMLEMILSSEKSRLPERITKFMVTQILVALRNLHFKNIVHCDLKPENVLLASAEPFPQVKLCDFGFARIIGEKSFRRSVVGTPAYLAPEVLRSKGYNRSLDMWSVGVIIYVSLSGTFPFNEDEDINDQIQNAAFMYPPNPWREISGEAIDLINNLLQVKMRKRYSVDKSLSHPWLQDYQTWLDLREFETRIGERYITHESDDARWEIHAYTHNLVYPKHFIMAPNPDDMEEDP
How it was run: as §1

PIM2 = molecular target: T4, PIM2 (Homo sapiens, UniProt Q9P1W9)
T4 construct: purchased Nanosyn (enzymatic panel); SGC in-house recombinant human kinases (DSF panel); Invitrogen (ALK1-6)
How it was run: as §1

IKK-β = molecular target: T5, IKK-β (Homo sapiens, UniProt O14920)
T5 construct: purchased Nanosyn (enzymatic panel); SGC in-house recombinant human kinases (DSF panel); Invitrogen (ALK1-6)
T5 sequence (O14920 1-756): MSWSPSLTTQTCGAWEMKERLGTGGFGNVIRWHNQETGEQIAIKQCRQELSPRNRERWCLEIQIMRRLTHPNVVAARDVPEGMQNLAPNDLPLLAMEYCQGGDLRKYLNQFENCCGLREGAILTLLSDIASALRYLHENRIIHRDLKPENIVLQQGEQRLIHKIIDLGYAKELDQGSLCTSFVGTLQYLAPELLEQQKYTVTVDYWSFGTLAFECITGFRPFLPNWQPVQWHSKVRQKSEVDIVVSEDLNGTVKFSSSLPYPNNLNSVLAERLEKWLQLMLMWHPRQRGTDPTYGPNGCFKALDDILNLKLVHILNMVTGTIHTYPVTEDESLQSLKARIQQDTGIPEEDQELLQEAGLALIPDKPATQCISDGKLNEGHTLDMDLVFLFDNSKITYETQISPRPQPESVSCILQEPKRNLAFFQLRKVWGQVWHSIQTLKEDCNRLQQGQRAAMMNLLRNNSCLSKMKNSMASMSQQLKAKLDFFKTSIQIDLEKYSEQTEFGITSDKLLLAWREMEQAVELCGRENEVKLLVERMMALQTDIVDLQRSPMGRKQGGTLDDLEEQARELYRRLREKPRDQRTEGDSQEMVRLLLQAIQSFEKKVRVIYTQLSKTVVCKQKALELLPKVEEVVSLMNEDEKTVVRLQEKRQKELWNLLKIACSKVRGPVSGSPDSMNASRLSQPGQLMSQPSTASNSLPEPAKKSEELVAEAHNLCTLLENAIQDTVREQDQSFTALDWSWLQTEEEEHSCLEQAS
How it was run: as §1

SGK2 = molecular target: T6, SGK2 (Homo sapiens, UniProt Q9HBY8)
T6 construct: purchased Nanosyn (enzymatic panel); SGC in-house recombinant human kinases (DSF panel); Invitrogen (ALK1-6)
T6 sequence (Q9HBY8 1-367): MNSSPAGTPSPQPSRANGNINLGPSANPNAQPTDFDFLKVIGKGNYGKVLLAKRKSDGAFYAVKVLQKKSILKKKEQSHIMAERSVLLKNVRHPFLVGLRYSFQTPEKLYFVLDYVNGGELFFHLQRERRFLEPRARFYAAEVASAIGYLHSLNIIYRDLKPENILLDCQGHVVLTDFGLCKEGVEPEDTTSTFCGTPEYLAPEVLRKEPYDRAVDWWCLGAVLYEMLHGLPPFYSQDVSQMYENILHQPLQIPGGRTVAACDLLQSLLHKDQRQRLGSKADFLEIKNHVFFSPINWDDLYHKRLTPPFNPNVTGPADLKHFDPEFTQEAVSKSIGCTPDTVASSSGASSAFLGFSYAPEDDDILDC
How it was run: as §1

cRAF = molecular target: T7, cRAF (Homo sapiens, UniProt P04049)
T7 construct: purchased Nanosyn (enzymatic panel); SGC in-house recombinant human kinases (DSF panel); Invitrogen (ALK1-6)
How it was run: as §1

INSR = molecular target: T8, INSR (Homo sapiens, UniProt P06213)
T8 construct: purchased Nanosyn (enzymatic panel); SGC in-house recombinant human kinases (DSF panel); Invitrogen (ALK1-6)
How it was run: as §1

T8 sequence (P06213 28-1382): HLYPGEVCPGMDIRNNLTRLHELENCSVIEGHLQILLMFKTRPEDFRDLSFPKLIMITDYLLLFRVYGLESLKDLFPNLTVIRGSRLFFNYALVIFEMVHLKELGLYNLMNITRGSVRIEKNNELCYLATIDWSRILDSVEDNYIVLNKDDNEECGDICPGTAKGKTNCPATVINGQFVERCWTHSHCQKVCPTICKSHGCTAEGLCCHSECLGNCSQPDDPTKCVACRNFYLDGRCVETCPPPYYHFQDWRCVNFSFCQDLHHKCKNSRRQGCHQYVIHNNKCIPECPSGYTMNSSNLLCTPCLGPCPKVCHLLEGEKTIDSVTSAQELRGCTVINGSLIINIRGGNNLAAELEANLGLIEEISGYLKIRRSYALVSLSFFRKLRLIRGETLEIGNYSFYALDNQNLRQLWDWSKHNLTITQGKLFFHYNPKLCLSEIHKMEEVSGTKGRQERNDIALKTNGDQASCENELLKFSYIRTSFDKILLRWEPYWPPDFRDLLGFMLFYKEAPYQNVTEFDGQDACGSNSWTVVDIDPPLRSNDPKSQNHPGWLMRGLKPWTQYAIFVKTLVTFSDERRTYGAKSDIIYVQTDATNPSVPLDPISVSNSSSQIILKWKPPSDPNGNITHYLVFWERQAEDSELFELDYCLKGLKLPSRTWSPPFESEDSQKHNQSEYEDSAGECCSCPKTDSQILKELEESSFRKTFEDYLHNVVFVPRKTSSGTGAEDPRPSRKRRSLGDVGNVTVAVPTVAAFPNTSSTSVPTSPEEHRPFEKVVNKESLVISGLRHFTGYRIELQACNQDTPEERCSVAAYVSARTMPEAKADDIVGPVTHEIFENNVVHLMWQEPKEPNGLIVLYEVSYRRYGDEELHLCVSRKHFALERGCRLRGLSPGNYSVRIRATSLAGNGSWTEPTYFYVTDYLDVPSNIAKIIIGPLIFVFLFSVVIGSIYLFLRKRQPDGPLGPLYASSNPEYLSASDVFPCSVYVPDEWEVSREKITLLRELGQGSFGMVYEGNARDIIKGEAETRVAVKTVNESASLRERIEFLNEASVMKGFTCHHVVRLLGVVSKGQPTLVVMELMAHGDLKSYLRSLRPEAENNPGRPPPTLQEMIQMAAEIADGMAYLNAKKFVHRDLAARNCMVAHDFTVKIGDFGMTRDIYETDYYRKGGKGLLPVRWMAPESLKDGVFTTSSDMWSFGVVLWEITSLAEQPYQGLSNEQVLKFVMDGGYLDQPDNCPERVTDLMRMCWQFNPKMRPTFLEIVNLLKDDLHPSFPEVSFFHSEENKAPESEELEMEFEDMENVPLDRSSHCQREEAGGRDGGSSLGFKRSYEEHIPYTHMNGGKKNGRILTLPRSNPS
T7 sequence (P04049 whole entry): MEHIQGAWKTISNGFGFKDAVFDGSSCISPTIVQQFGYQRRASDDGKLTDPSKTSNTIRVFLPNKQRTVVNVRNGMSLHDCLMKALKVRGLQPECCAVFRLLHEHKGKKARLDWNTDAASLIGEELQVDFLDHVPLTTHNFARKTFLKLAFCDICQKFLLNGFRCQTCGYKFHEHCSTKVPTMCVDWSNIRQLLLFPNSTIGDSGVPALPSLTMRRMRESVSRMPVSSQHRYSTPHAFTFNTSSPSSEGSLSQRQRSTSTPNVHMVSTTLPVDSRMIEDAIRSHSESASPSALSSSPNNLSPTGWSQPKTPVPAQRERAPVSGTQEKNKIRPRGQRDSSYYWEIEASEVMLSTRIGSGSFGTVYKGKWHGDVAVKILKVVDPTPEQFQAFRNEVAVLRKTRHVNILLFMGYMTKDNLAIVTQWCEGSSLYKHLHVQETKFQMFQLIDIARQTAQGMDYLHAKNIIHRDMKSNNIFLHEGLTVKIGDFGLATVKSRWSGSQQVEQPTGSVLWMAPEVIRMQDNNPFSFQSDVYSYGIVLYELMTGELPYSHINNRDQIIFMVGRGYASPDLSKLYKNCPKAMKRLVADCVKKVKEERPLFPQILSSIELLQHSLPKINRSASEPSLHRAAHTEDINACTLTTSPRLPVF
T4 sequence (Q9P1W9 whole entry): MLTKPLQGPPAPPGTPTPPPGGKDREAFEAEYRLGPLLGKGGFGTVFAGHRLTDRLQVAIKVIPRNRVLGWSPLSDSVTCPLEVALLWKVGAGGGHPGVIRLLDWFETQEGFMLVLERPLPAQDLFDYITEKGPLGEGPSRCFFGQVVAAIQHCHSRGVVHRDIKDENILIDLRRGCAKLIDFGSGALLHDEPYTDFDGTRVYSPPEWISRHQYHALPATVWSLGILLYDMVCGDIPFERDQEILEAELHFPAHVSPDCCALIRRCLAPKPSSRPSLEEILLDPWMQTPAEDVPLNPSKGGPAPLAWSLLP
T1 sequence (Q13131 whole entry): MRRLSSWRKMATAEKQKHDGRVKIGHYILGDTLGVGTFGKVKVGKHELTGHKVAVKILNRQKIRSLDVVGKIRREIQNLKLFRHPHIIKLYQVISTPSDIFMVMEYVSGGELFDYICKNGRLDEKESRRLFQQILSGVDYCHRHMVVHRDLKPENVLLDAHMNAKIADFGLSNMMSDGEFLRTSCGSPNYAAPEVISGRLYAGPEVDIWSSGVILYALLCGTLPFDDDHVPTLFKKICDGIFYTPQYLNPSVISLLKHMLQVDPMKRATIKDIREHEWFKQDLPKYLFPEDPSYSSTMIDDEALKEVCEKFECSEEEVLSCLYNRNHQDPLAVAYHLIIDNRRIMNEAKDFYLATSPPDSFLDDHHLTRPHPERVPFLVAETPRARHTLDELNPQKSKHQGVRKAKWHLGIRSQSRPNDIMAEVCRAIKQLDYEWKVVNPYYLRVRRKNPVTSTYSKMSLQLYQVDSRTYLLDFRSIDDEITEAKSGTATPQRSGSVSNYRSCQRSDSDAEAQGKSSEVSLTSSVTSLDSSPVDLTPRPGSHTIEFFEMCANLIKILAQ
T1 sequence (Q9Y478 whole entry partner): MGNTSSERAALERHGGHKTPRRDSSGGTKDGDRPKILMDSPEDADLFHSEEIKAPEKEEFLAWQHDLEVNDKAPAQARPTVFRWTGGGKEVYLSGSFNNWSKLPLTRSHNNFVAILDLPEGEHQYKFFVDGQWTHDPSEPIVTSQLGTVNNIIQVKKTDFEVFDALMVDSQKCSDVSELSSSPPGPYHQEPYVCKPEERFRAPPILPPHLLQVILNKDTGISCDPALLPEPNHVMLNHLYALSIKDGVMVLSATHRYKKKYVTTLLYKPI
T1 sequence (P54619 whole entry partner): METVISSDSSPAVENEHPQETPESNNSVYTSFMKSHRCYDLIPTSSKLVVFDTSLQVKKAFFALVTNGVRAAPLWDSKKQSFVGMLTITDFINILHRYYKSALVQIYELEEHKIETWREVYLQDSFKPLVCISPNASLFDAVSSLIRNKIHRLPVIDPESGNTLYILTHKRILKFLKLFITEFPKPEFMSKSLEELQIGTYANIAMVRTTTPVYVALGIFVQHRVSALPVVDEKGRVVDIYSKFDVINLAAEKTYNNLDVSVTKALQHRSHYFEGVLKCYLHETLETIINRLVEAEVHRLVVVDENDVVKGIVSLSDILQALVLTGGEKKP

Compound	inhibition at 0.1 µM (AMPKα1) [%]	inhibition at 1 µM (AMPKα1) [%]	inhibition at 0.1 µM (AURKC) [%]	inhibition at 1 µM (AURKC) [%]	inhibition at 0.1 µM (PRKD3) [%]	inhibition at 1 µM (PRKD3) [%]	inhibition at 0.1 µM (PIM2) [%]	inhibition at 1 µM (PIM2) [%]	inhibition at 0.1 µM (IKK-β) [%]	inhibition at 1 µM (IKK-β) [%]	inhibition at 0.1 µM (SGK2) [%]	inhibition at 1 µM (SGK2) [%]	inhibition at 0.1 µM (cRAF) [%]	inhibition at 1 µM (cRAF) [%]	inhibition at 0.1 µM (INSR) [%]	inhibition at 1 µM (INSR) [%]
COc1cc(-c2cc(-c3cccc(O)c3)cnc2N)cc(OC)c1OC [K02288, 3-[6-amino-5-(3,4,5-trimethoxy-phenyl)-pyridin-3-yl]-phenol]	-1	0	-1	3.2	-1	3.2	0.9	2.3	-2	1.3	2.7	1.3	-5	-8	-4	0.7
c1ccc2c(-c3cnn4cc(-c5ccc(N6CCNCC6)cc5)cnc34)ccnc2c1 [LDN-193189]	5.2	23	4.2	25	3.2	13	0	0	0.3	1.4	2.3	0.2	0.6	0.1	3.8	4.5
